BindingDB's records for doi:10.1021/acsmedchemlett.9b00264 (Xiamen University, 2019)

Legend:
[1] = Inhibition of JMJD6 in human […] cells assessed as decrease in cell proliferation measured after 72 hrs by CellTiter 96 AQueous one solution cell proliferation assay
[2] = Inhibition of JMJD6 in human HeLa cells assessed as decrease in cell proliferation measured after 72 hrs by CellTiter 96 AQueous one solution cell proliferation assay

Cc1ccc2oc(=O)c(-c3nc4cnccc4[nH]3)cc2c1
IC50 [1]: 10.2 µM
IC50 [2]: 2.44 µM
